The record followed here is paper PMC2709368 (The Journal of Biological Chemistry, 2009).

Some results are limits rather than exact numbers.

The target of this assay is T1, prolectin (Homo sapiens, UniProt Q6ZS10).
T1 sequence (Q6ZS10 194-378 limits assumed): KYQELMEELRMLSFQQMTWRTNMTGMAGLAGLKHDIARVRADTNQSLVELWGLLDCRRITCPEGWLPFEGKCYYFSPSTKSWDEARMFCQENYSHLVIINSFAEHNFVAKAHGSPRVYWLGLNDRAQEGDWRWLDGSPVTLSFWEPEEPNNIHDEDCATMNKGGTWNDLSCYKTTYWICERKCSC
The experiment in a line: solid-phase competition binding, […]-Man-BSA reporter. The conditions noted are these: competitive; immobilised extracellular domain; Ca2+-dependent site.

As for `C[C@@H]1OC(O)[C@@H](O)[C@H](O)[C@@H]1O` (stereo partly shown) [Fuc], the “Relative KI” value is recorded as 1.1 ± 0.1 relative to KI of αMe-Man. With `CC(=O)N[C@H]1C(O)O[C@H](CO)[C@@H](O)[C@@H]1O` (stereo partly shown) [GlcNAc], the “Relative KI” value is reported as 1.2 ± 0.1 relative to KI of αMe-Man. In the case of `CC(=O)N[C@H]1C(O)O[C@H](CO)[C@@H](O[C@@H]2O[C@@H](C)[C@@H](O)[C@@H](O)[C@@H]2O)[C@@H]1O[C@@H]1O[C@H](CO)[C@H](O)[C@H](O)[C@H]1O` (stereo partly shown) [Le^a] it was 0.22 ± 0.01 relative to KI of αMe-Man; in that of `CC(=O)N[C@H]1C(O)O[C@H](CO)[C@@H](O[C@@H]2O[C@H](CO)[C@H](O)[C@H](O)[C@H]2O)[C@@H]1O[C@@H]1O[C@@H](C)[C@@H](O)[C@@H](O)[C@@H]1O` (stereo partly shown) [Le^x], 0.72 ± 0.08 relative to KI of αMe-Man; in that of `OC[C@H]1OC(O)[C@@H](O)[C@@H](O)[C@@H]1O` (stereo partly shown) [Man], 1.2 ± 0.1 relative to KI of αMe-Man. Next, `CO[C@H]1O[C@H](CO)[C@H](O)[C@H](O)[C@H]1O` [αMe-Gal]: > 30 relative to KI of αMe-Man; `CO[C@H]1O[C@H](CO)[C@@H](O)[C@H](O)[C@H]1O` [αMe-Glc]: 3.2 ± 0.1 relative to KI of αMe-Man.
